Results published in publication PMC10144222 (Marine Drugs, 2023).

How the values were obtained:
[1] = tested on: coordinated locomotion in mice; conditions: mouse, in vivo
in vitro = conditions: human, serum
Cav2.2 channel = Cav2.2 channel (Homo sapiens, UniProt Q00975); test: cell-based; assay type: cell-based
tremor in mice = conditions: mouse, in vivo
[2] = assay type: physicochemical; conditions: pH 7.4

Chain of Cav2.2 channel (Q00975 whole entry, looked up): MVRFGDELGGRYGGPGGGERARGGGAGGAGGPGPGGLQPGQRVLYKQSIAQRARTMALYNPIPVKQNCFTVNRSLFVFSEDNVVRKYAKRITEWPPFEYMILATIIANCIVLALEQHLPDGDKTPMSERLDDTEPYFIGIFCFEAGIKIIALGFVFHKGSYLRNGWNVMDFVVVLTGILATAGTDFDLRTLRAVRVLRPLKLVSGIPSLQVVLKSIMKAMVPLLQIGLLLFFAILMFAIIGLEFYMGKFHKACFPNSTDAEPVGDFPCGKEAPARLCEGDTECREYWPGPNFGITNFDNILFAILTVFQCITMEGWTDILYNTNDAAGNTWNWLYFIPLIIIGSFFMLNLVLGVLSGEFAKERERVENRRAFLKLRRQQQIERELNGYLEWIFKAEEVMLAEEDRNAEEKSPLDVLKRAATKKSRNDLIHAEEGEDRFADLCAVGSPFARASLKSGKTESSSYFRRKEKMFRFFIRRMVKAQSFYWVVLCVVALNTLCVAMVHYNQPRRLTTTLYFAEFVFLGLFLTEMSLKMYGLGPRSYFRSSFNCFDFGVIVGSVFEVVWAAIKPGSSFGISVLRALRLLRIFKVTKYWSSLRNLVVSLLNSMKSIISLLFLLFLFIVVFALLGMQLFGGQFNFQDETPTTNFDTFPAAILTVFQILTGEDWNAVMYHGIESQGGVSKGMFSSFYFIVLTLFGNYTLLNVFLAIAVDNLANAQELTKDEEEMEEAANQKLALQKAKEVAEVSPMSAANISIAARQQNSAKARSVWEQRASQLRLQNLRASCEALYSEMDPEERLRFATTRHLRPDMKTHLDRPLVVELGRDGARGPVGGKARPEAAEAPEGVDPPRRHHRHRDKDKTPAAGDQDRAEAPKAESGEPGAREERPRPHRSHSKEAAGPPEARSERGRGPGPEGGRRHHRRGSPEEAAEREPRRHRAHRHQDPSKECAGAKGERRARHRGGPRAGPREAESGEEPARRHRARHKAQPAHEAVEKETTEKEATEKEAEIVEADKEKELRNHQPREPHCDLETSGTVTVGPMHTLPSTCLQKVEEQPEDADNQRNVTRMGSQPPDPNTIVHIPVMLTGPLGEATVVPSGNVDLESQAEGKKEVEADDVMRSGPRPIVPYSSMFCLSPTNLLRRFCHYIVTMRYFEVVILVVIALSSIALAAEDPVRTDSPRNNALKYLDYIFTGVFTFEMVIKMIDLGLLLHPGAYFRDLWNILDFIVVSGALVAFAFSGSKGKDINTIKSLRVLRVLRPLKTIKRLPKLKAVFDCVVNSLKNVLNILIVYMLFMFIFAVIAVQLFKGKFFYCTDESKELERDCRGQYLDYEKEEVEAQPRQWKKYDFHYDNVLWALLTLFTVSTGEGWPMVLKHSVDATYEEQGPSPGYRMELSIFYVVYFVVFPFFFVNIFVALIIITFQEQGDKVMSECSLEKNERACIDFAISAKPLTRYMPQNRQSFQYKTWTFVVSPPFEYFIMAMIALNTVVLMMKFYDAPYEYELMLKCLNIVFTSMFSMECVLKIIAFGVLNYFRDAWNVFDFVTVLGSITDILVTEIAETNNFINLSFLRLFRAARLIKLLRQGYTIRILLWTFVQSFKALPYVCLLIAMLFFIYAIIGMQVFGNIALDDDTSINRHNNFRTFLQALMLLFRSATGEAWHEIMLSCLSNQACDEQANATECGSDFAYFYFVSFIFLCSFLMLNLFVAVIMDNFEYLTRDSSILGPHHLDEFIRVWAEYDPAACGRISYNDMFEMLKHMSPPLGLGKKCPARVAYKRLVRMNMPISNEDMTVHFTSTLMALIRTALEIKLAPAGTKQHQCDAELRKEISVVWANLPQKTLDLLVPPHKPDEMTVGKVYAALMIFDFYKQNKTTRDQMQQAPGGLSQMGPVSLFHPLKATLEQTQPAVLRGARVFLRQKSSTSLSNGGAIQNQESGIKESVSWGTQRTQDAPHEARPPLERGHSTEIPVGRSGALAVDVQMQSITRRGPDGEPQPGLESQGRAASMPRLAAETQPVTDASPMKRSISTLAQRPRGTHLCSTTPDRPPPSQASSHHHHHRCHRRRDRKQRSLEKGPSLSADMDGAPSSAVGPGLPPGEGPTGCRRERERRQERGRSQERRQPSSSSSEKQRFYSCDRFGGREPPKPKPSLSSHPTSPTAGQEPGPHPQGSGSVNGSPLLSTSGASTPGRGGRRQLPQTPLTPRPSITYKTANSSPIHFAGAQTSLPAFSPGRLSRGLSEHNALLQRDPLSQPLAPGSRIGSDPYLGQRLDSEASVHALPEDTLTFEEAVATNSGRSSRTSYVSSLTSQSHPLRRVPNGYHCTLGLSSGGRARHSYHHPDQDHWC

Compound | effect on coordinated locomotion [1] | remaining at 24 h (in vitro) [%] | IC50 (Cav2.2 channel) [µM] | reduction of ICa amplitude (Cav2.2 channel) [%] | tremor intensity (4-point scale 0-3) (tremor in mice) | particle size (dynamic light scattering) [2] [nm]
CCCCCCCCCCCCCC(=O)N[C@H]1CSSC[C@@H]2NC(=O)[C@@H]3CSSC[C@@H](C(N)=O)NC(=O)[C@H](CCCCN)NC(=O)CNC(=O)[C@H](CO)NC(=O)[C@H](CCCNC(=N)N)NC(=O)[C@H](CSSC[C@H](NC(=O)[C@H](CCCCN)NC(=O)[C@H](C)NC(=O)CNC(=O)[C@H](CCCCN)NC(=O)CNC(=O)[C@H](CCCCN)NC1=O)C(=O)N[C@@H](CO)C(=O)N[C@@H](CCCNC(=N)N)C(=O)N[C@@H](CC(C)C)C(=O)N[C@@H](CCSC)C(=O)N[C@@H](Cc1ccc(O)cc1)C(=O)N[C@@H](CC(=O)O)C(=O)N3)NC(=O)[C@H](CO)NC(=O)CNC(=O)[C@H]([C@@H](C)O)NC2=O [Myr-MVIIA] | did not affect coordinated locomotion | 67.8 | 0.0921 | 66.83 ± 0.16 | no tremor symptoms | –
CSCC[C@@H]1NC(=O)[C@H](CC(C)C)NC(=O)[C@H](CCCNC(=N)N)NC(=O)[C@H](CO)NC(=O)[C@@H]2CSSC[C@@H]3NC(=O)[C@H](CO)NC(=O)CNC(=O)[C@H]([C@@H](C)O)NC(=O)[C@H](CSSC[C@H](N)C(=O)N[C@@H](CCCCN)C(=O)NCC(=O)N[C@@H](CCCCN)C(=O)NCC(=O)N[C@@H](C)C(=O)N[C@@H](CCCCN)C(=O)N2)NC(=O)[C@H](CSSC[C@@H](C(N)=O)NC(=O)[C@H](CCCCN)NC(=O)CNC(=O)[C@H](CO)NC(=O)[C@H](CCCNC(=N)N)NC3=O)NC(=O)[C@H](CC(=O)O)NC(=O)[C@H](Cc2ccc(O)cc2)NC1=O [MVIIA, ω-conotoxin MVIIA, reference compound] | significant at 30–60 min and gradually decreased from 2 to 4 h | – | – | 100.00 ± 0.00 | highest tremor intensity at 30–60 min, after which it gradually decreased | 48.74 ± 16.07
